# Test results reported in patent US20050250836A1, “Inhibitors of checkpoint kinases (Wee1 and Chk1)” (Pfizer Inc, priority 2004, published 2005).
row,Compound,melting point
1,Cl.NCCCn1cc(Br)c2c3c(c(-c4ccccc4Cl)cc21)C(=O)NC3=O,310 to 313 °C
2,"COc1ccccc1-c1cc2c(ccn2C)c2c1C(=O)NC2=O [Example 27, 4-(2-Methoxyphenyl)-6-methyl-6H-2,6-diaza-as-indacene-1,3-dione]",243 to 245 °C
3,"COc1ccccc1-c1cc2c(c(Br)cn2C)c2c1C(=O)NC2=O [Example 28, 8-Bromo-4-(2-methoxyphenyl)-6-methyl-6H-2,6-diaza-as-indacene-1,3-dione]",216 to 220 °C
4,"COc1ccccc1-c1cc2c(c(Cl)cn2C)c2c1C(=O)NC2=O [Example 30, 8-Chloro-4-(2-methoxyphenyl)-6-methyl-6H-2,6-diaza-as-indacene-1,3-dione]",267 to 271 °C
5,"CSc1ccccc1-c1cc2c(c(Br)cn2C)c2c1C(=O)NC2=O [Example 31, 8-Bromo-6-methyl-4-(2-methylsulfanylphenyl)-6H-2,6-diaza-as-indacene-1,3-dione]",240 to 243 °C
6,"Cn1cc(I)c2c3c(c(-c4ccccc4Cl)cc21)C(=O)NC3=O [Example 32, 4-(2-Chlorophenyl)-8-iodo-6-methyl-6H-2,6-diaza-as-indacene-1,3-dione]",150 to 154 °C (dec.)
7,"COc1cccc(Cl)c1-c1cc2c(ccn2C)c2c1C(=O)NC2=O [Example 33, 4-(2-Chloro-6-methoxyphenyl)-6-methyl-6H-2,6-diaza-as-indacene-1,3-dione]",268 to 272 °C
8,"COc1cccc(Cl)c1-c1cc2c(c(Br)cn2C)c2c1C(=O)NC2=O [Example 34, 8-Bromo-4-(2-chloro-6-methoxyphenyl)-6-methyl-6H-2,6-diaza-as-indacene-1,3-dione]",238 to 242 °C
9,"CCOCCOCCn1ccc2c3c(c(-c4ccccc4Cl)cc21)C(=O)NC3=O [Example 35, 4-(2-Chlorophenyl)-6-[2-(2-ethoxyethoxy)ethyl]-6H-2,6-diaza-as-indacene-1,3-dione]",173 °C
10,"CCOCCOCCn1cc(Br)c2c3c(c(-c4ccccc4Cl)cc21)C(=O)NC3=O [Example 36, 8-Bromo-4-(2-chlorophenyl)-6-[2-(2-ethoxyethoxy)ethyl]-6H-2,6-diaza-as-indacene-1,3-dione]",108 to 110 °C
11,"O=C1NC(=O)c2c1c(-c1ccccc1Cl)cc1c2ccn1CCCO [Example 42, 4-(2-Chlorophenyl)-6-(3-hydroxypropyl)-6H-2,6-diaza-as-indacene-1,3-dione]",225 to 227 °C
12,"COCCCn1ccc2c3c(c(-c4ccccc4Cl)cc21)C(=O)NC3=O [Example 43, 4-(2-Chlorophenyl)-6-(3-methoxypropyl)-6H-2,6-diaza-as-indacene-1,3-dione]",171 to 172 °C
13,"COCCCn1cc(Br)c2c3c(c(-c4ccccc4Cl)cc21)C(=O)NC3=O [Example 44, 8-Bromo-4-(2-chlorophenyl)-6-(3-methoxypropyl)-6H-2,6-diaza-as-indacene-1,3-dione]",149 to 151 °C
14,"CCOC(=O)c1cc2c3c(c(-c4ccccc4Cl)cc2n1CCCOC)C(=O)NC3=O [Example 46, 4-(2-Chlorophenyl)-6-(3-methoxypropyl)-1,3-dioxo-1,2,3,6-tetrahydro-2,6-diaza-as-indacene-7-carboxylic acid ethyl ester]",235 to 237 °C
15,"COCCCn1c(C(=O)O)cc2c3c(c(-c4ccccc4Cl)cc21)C(=O)NC3=O [Example 47, 4-(2-Chlorophenyl)-6-(3-methoxypropyl)-1,3-dioxo-1,2,3,6-tetrahydro-2,6-diaza-as-indacene-7-carboxylic acid]",272 to 274 °C
16,"CCOC(=O)c1cc2c3c(c(-c4ccccc4Cl)cc2n1CCCO)C(=O)NC3=O [Example 48 (ii), 4-(2-Chlorophenyl)-6-(3-hydroxypropyl)-1,3-dioxo-1,2,3,6-tetrahydro-2,6-diaza-as-indacene-7-carboxylic acid ethyl ester]",249 to 251 °C

# Now from value to compound:
row,melting point,Compound
1,294 to 295 °C,"O=C1NC(=O)c2c1c(-c1ccccc1Cl)cc1c2cc(C(=O)O)n1CCCBr [Example 49, 6-(3-Bromopropyl)-4-(2-chlorophenyl)-1,3-dioxo-1,2,3,6-tetrahydro-2,6-diaza-as-indacene-7-carboxylic acid]"
2,218 to 220 °C,"O=C1NC(=O)c2c1c(-c1ccccc1Cl)cc1c2cc(CO)n1CCCBr [Example 50, 6-(3-Bromopropyl)-4-(2-chlorophenyl)-7-hydroxymethyl-6H-2,6-diaza-as-indacene-1,3-dione]"
3,260 to 261 °C,"COCCCn1c(C(N)=O)cc2c3c(c(-c4ccccc4Cl)cc21)C(=O)NC3=O [Example 51, 4-(2-Chlorophenyl)-6-(3-methoxypropyl)-1,3-dioxo-1,2,3,6-tetrahydro-2,6-diaza-as-indacene-7-carboxylic acid amide]"
4,162 to 165 °C,"CCOCCOCCn1c(C=O)cc2c3c(c(-c4ccccc4Cl)cc21)C(=O)NC3=O [Example 55, 4-(2-Chlorophenyl)-6-[2-(2-ethoxyethoxy)ethyl]-1,3-dioxo-1,2,3,6-tetrahydro-2,6-diaza-as-indacene-7-carbaldehyde]"
5,203 to 205 °C,"CCOCCOCCn1c(C=O)c(Br)c2c3c(c(-c4ccccc4Cl)cc21)C(=O)NC3=O [Example 56, 8-Bromo-4-(2-chlorophenyl)-6-[2-(2-ethoxyethoxy)ethyl]-1,3-dioxo-1,2,3,6-tetrahydro-2,6-diaza-as-indacene-7-carbaldehyde]"
6,155 to 156 °C,"COCCCn1c(C=O)cc2c3c(c(-c4ccccc4Cl)cc21)C(=O)NC3=O [Example 58, 4-(2-Chlorophenyl)-6-(3-methoxypropyl)-1,3-dioxo-1,2,3,6-tetrahydro-2,6-diaza-as-indacene-7-carbaldehyde]"
7,187 to 189 °C,"COCCCn1c(CO)cc2c3c(c(-c4ccccc4Cl)cc21)C(=O)NC3=O [Example 59, 4-(2-Chlorophenyl)-7-hydroxymethyl-6-(3-methoxypropyl)-6H-2,6-diaza-as-indacene-1,3-dione]"
8,178 to 180 °C,"COCCCn1c(CO)c(Br)c2c3c(c(-c4ccccc4Cl)cc21)C(=O)NC3=O [Example 60, 8-Bromo-4-(2-chlorophenyl)-7-hydroxymethyl-6-(3-methoxypropyl)-6H-2,6-diaza-as-indacene-1,3-dione]"
9,206 to 207 °C,"COCCCn1c(C=O)c(Br)c2c3c(c(-c4ccccc4Cl)cc21)C(=O)NC3=O [Example 61, 8-Bromo-4-(2-chlorophenyl)-6-(3-methoxypropyl)-1,3-dioxo-1,2,3,6-tetrahydro-2,6-diaza-as-indacene-7-carbaldehyde]"
10,203 to 205 °C,"O=C1NC(=O)c2c1c(-c1ccccc1Cl)cc1c2c(Br)c(CO)n1CCCO [Example 63, 8-Bromo-4-(2-chlorophenyl)-7-hydroxymethyl-6-(3-hydroxypropyl)-6H-2,6-diaza-as-indacene-1,3-dione]"
11,198 to 199 °C,"COCCCn1c(C=O)c(Cl)c2c3c(c(-c4ccccc4Cl)cc21)C(=O)NC3=O [Example 64, 8-Chloro-4-(2-chlorophenyl)-6-(3-methoxypropyl)-1,3-dioxo-1,2,3,6-tetrahydro-2;6-diaza-as-indacene-7-carbaldehyde]"
12,218 to 219 °C,"O=C1NC(=O)c2c1c(-c1ccccc1Cl)cc1c2c(Cl)c(CO)n1CCCO [Example 66, 8-Chloro-4-(2-chlorophenyl)-7-hydroxymethyl-6-(3-hydroxypropyl)-6H-2,6-diaza-as-indacene-1,3-dione]"
13,214 to 215 °C,"COCCCn1c(CO)c(Cl)c2c3c(c(-c4ccccc4Cl)cc21)C(=O)NC3=O [Example 67, 8-Chloro-4-(2-chlorophenyl)-7-hydroxymethyl-6-(3-methoxypropyl)-6H-2,6-diaza-as-indacene-1,3-dione]"
14,168 to 169 °C,"COCCOCCCn1c(C=O)c(Br)c2c3c(c(-c4ccccc4Cl)cc21)C(=O)NC3=O [Example 69, 8-Bromo-4-(2-chlorophenyl)-6-[3-(2-methoxyethoxy)propyl]-1,3-dioxo-1,2,3,6-tetrahydro-2,6-diaza-as-indacene-7-carbaldehyde]"
15,149 to 150 °C,COCCOCCCn1c(CO)c(Br)c2c3c(c(-c4ccccc4Cl)cc21)C(=O)NC3=O [Example 70]
16,301 to 302 °C,"Cn1c(C(=O)O)cc2c3c(c(-c4ccccc4Cl)cc21)C(=O)NC3=O [Example 83, 4-(2-Chlorophenyl)-6-methyl-1,3-dioxo-1,2,3,6-tetrahydro-2,6-diaza-as-indacene-7-carboxylic acid]"
17,242 °C (dec.),"Cn1cc(Br)c2c3c(c(I)cc21)C(=O)NC3=O [Example 132, 8-Bromo-4-iodo-6-methyl-6H-2,6-diaza-as-indacene-1,3-dione]"
18,272 to 274 °C,"CSc1ccccc1-c1cc2c(ccn2C)c2c1C(=O)NC2=O [Example 134 (sulfide), 6-Methyl-4-(2-methylsulfanylphenyl)-6H-2,6-diaza-as-indacene-1,3-dione]"
19,311 to 315 °C,"Cn1ccc2c3c(c(-c4ccccc4[S+](C)[O-])cc21)C(=O)NC3=O (centres unmarked) [Example 134 (sulfoxide), 4-(2-Methanesulfinylphenyl)-6-methyl-6H-2,6-diaza-as-indacene-1,3-dione]"
20,236 to 239 °C,"C[C@@H]1CN(CCCn2cc(Br)c3c4c(c(-c5ccccc5Cl)cc32)C(=O)NC4=O)C[C@H](C)N1 [Example 135, 8-Bromo-4-(2-chlorophenyl)-6-[3-(cis-3,5-dimethylpiperazin-1-yl)propyl]-6H-2,6-diaza-as-indacene-1,3-dione]"
21,158 to 161 °C,"O=C1NC(=O)c2c1c(-c1ccccc1Cl)cc1c2c(Br)cn1CCCN1CCCC1 [Example 137, 8-Bromo-4-(2-chlorophenyl)-6-(3-pyrrolidin-1-ylpropyl)-6H-2,6-diaza-as-indacene-1,3-dione]"
22,150 to 152 °C,"CN1CCN(CCCn2cc(Br)c3c4c(c(-c5ccccc5Cl)cc32)C(=O)NC4=O)CC1 [Example 138, 8-Bromo-4-(2-chlorophenyl)-6-[3-(4-methylpiperazin-1-yl)-propyl]-6H-2,6-diaza-as-indacene-1,3-dione]"
